Test results as given in paper PMC3984001 (Neuropharmacology, 2014).
Where two headings read alike, the source gives them in different places.

What was measured:
Assay type in all cases: cell-based
human α2β2-nAChR [1] = biological target: T1, human α2β2-nAChR (Homo sapiens, UniProt P17787+Q15822); conditions: for Peak current: hα2hβ2opt, 316 μM ACh or 100 μM nicotine; for Higher agonist sensitivity of 1:10 (HS) than 1:1 receptors: α2:β2 1:10 vs 1:1 cRNA; for Higher agonist sensitivity of 1:10 (HS) than 1:1 receptors / Higher agonist sensitivity of 1:10 (HS) than 10:1 (LS) receptors: range printed for ACh or nicotine together; for Lower Imax of 1:10 (HS) than 1:1 or 10:1 receptors: α2:β2 1:10 vs 1:1 or 10:1 cRNA; for Higher agonist sensitivity of 1:10 (HS) than 10:1 (LS) receptors: α2:β2 1:10 vs 10:1 cRNA; for Lower Imax of 10:1 than 1:1 receptors / Lower agonist sensitivity of 10:1 than 1:1 receptors: α2:β2 10:1 vs 1:1 cRNA; for Peak response Imax (Mean±SE): at the Imax concentration of the agonist; for EC50: Potency EC50 (95% CI), −70 mV
human α2(T22I)β2-nAChR [2] = biological target: T2, human α2(T22I)β2-nAChR (Homo sapiens, UniProt P17787+Q15822, T22I); conditions: for Higher agonist sensitivity of 1:10 (HS) than 1:1 or 10:1 receptors: α2(T22I):β2 1:10 vs 1:1 or 10:1 cRNA; for Lower Imax of 10:1 than 1:1 receptors / Lower agonist sensitivity of 10:1 than 1:1 receptors: α2(T22I):β2 10:1 vs 1:1 cRNA; for Peak response Imax (Mean±SE): at the Imax concentration of the agonist
hα2hβ2wt-nAChR = hα2hβ2wt-nAChR (Homo sapiens, UniProt P17787+Q15822); conditions: 316 μM ACh or 100 μM nicotine
human α2(T22I)β4-nAChR [3] = biological target: T3, human α2(T22I)β4-nAChR (Homo sapiens, UniProt P30926+Q15822, T22I); experiment: Mecamylamine block of agonist-induced peak currents; conditions: ACH-2, read-out: Inhibition of ACh-induced peak current responses, 1000 μM mecamylamine; 316 μM ACh; α2(T22I):β4 1:1
human α2β2-nAChR [4] = biological target: T1, human α2β2-nAChR; experiment: Mecamylamine block of agonist-induced Imax responses; conditions: 1000 μM mecamylamine; α2:β2 1:1, 10:1 or 1:10; data not shown
human α2(T22I)β2-nAChR [5] = biological target: T2, human α2(T22I)β2-nAChR; experiment: as above; conditions: 1000 μM mecamylamine; α2(T22I):β2 1:1, 10:1 or 1:10; data not shown
human α2β4-nAChR = human α2β4-nAChR (Homo sapiens, UniProt P30926+Q15822); conditions: for EC50: Potency EC50 (95% CI), −70 mV; for Peak response Imax (Mean±SE): at the Imax concentration of the agonist
human α2(T22I)β4-nAChR [6] = biological target: T3, human α2(T22I)β4-nAChR; conditions: for EC50: Potency EC50 (95% CI), −70 mV; for Peak response Imax (Mean±SE): at the Imax concentration of the agonist

Chain of human α2β4-nAChR (Q15822 27-529): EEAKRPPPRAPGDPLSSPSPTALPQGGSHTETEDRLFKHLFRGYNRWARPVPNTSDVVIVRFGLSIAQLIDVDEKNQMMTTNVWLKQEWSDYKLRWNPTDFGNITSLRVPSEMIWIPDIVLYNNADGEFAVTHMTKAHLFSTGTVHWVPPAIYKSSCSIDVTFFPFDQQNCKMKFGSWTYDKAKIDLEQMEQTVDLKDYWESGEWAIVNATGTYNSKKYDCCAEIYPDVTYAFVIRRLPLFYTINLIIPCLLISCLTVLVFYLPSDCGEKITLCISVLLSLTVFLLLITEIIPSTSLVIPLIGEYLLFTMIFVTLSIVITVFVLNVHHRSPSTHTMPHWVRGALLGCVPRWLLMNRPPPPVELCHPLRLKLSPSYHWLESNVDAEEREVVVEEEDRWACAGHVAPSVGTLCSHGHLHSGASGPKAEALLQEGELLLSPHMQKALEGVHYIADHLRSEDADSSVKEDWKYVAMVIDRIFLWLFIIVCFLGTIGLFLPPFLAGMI
Chain of human α2β4-nAChR (P30926 22-498): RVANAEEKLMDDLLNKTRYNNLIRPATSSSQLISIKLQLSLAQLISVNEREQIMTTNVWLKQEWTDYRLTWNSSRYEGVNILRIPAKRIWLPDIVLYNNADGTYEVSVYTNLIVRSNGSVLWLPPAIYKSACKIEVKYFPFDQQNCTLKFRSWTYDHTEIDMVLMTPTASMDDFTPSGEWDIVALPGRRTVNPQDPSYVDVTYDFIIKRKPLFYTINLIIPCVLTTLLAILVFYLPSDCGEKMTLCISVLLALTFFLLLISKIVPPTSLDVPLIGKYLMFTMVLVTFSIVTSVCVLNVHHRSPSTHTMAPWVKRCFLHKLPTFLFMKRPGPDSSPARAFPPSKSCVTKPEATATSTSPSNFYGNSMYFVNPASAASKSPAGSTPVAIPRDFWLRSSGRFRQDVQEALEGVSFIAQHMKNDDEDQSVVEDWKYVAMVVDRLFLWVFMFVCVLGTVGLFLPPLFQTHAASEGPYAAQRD
T2 sequence (Q15822 27-529): as the sequence (Q15822 27-529) above
T2 sequence (P17787 26-502): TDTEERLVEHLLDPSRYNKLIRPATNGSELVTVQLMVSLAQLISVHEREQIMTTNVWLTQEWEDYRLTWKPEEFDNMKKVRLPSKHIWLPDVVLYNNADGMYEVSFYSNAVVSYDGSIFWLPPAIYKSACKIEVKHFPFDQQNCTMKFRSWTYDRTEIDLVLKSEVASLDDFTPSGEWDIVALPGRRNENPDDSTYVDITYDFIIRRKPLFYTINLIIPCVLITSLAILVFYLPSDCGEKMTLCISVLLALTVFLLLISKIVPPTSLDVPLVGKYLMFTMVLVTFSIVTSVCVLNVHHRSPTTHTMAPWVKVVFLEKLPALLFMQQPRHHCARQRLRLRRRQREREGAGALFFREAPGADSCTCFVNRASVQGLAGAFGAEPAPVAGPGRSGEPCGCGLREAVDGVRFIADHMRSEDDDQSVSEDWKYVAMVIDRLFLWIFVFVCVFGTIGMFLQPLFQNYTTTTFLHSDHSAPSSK
T3 sequence (Q15822 27-529): as the sequence (Q15822 27-529) above
T3 sequence (P30926 22-498): as the sequence (P30926 22-498) above
T1 sequence (Q15822 27-529): as the sequence (Q15822 27-529) above
T1 sequence (P17787 26-502): as the sequence (P17787 26-502) above
Chain of hα2hβ2wt-nAChR (Q15822 27-529): as the sequence (Q15822 27-529) above
Chain of hα2hβ2wt-nAChR (P17787 26-502): as the sequence (P17787 26-502) above

## CC(=O)OCC[N+](C)(C)C [ACh, acetylcholine]
Human α2β2-nAChR [1]
  Peak current: 406±89 nA
  Higher agonist sensitivity of 1:10 (HS) than 1:1 receptors: 2–3 fold
  Lower Imax of 1:10 (HS) than 1:1 or 10:1 receptors: 47–70%
  Higher agonist sensitivity of 1:10 (HS) than 10:1 (LS) receptors: 8–18 fold
  Lower Imax of 10:1 than 1:1 receptors: ~ 43%
  Lower agonist sensitivity of 10:1 than 1:1 receptors: ~ 5 fold
Human α2β2-nAChR [1]; α2β2(1:1)
  Hill coefficient nH ± SE: 0.7 ± 0.05
  Peak response Imax (Mean±SE): 551 ± 62 nA
Human α2β2-nAChR [1]; α2β2(1:10)
  Hill coefficient nH ± SE: 1 ± 0.08
  Peak response Imax (Mean±SE): 167 ± 18 nA
Human α2β2-nAChR [1]; α2β2(10:1)
  Hill coefficient nH ± SE: 0.9 ± 0.08
  Peak response Imax (Mean±SE): 314 ± 84 nA
Human α2(T22I)β2-nAChR [2]
  Higher agonist sensitivity of 1:10 (HS) than 1:1 or 10:1 receptors: 4–9 fold
  Lower Imax of 10:1 than 1:1 receptors: ~ 25 fold
  Lower agonist sensitivity of 10:1 than 1:1 receptors: ~ 2 fold
Human α2(T22I)β2-nAChR [2]; α2(T22I)β2(1:1)
  Hill coefficient nH ± SE: 0.9 ± 0.08
  Peak response Imax (Mean±SE): 1326 ± 214 nA
Human α2(T22I)β2-nAChR [2]; α2(T22I)β2(1:10)
  Peak response Imax (Mean±SE): 952 ± 128 nA
Human α2(T22I)β2-nAChR [2]; α2(T22I)β2(10:1)
  Hill coefficient nH ± SE: 0.9 ± 0.3
  Peak response Imax (Mean±SE): 54 ± 9 nA
hα2hβ2wt-nAChR
  Peak current: 28±6 nA

## CNC1(C)C2CCC(C2)C1(C)C (centres unmarked) [Mecamylamine, mecamylamine]
Human α2(T22I)β4-nAChR [3]
  inhibition at 1000 µM: 99%
Human α2β2-nAChR [4]
  Effect on ACh or nicotine induced Imax responses: completely abolished
Human α2(T22I)β2-nAChR [5]
  Effect on ACh or nicotine induced Imax responses: completely abolished

## CN1CCC[C@H]1c1cccnc1 [Nicotine, L-nicotine]
Human α2β2-nAChR [1]; α2β2(1:1) cRNA ratio
  EC50: 1.8 µM
Human α2β2-nAChR [1]; α2β2(1:10) cRNA ratio, putative HS
  EC50: 0.83 µM
Human α2β2-nAChR [1]; α2β2(10:1) cRNA ratio, putative LS
  EC50: 6.3 µM
Human α2β2-nAChR [1]
  Peak current: 291±55 nA
  Higher agonist sensitivity of 1:10 (HS) than 1:1 receptors: 2–3 fold
  Lower Imax of 1:10 (HS) than 1:1 or 10:1 receptors: 72–82%
  Higher agonist sensitivity of 1:10 (HS) than 10:1 (LS) receptors: 8–18 fold
  Lower Imax of 10:1 than 1:1 receptors: ~ 36%
  Lower agonist sensitivity of 10:1 than 1:1 receptors: ~ 3.5 fold
Human α2β2-nAChR [1]; α2β2(1:1)
  Hill coefficient nH ± SE: 0.8 ± 0.08
  Imax Conc. (concentration where Imax is achieved): 100 µM
  Peak response Imax (Mean±SE): 373 ± 33 nA
Human α2β2-nAChR [1]; α2β2(1:10)
  Hill coefficient nH ± SE: 1.1 ± 0.13
  Imax Conc. (concentration where Imax is achieved): 31.6 µM
  Peak response Imax (Mean±SE): 68 ± 7.8 nA
Human α2β2-nAChR [1]; α2β2(10:1)
  Hill coefficient nH ± SE: 1.2 ± 0.06
  Imax Conc. (concentration where Imax is achieved): 100 µM
  Peak response Imax (Mean±SE): 239 ± 21 nA
Human α2(T22I)β2-nAChR [2]; Potency EC50 (95% CI), α2(T22I)β2(1:1) cRNA ratio, −70 mV
  EC50: 6.7 µM
Human α2(T22I)β2-nAChR [2]
  Higher agonist sensitivity of 1:10 (HS) than 1:1 or 10:1 receptors: 3–5 fold
  Lower Imax of 10:1 than 1:1 receptors: ~ 23 fold
  Lower agonist sensitivity of 10:1 than 1:1 receptors: ~ 2 fold
Human α2(T22I)β2-nAChR [2]; α2(T22I)β2(1:1)
  Hill coefficient nH ± SE: 1.2 ± 0.08
  Imax Conc. (concentration where Imax is achieved): 100 µM
  Peak response Imax (Mean±SE): 1463 ± 136 nA
Human α2(T22I)β2-nAChR [2]; α2(T22I)β2(1:10)
  Hill coefficient nH ± SE: 1 ± 0.07
  Imax Conc. (concentration where Imax is achieved): 31.6 µM
  Peak response Imax (Mean±SE): 1004 ± 91 nA
Human α2(T22I)β2-nAChR [2]; α2(T22I)β2(10:1)
  Hill coefficient nH ± SE: 1.1 ± 0.2
  Imax Conc. (concentration where Imax is achieved): 100 µM
  Peak response Imax (Mean±SE): 62 ± 12 nA
Human α2β4-nAChR; α2β4(1:1) cRNA ratio
  EC50: 4.7 µM
Human α2β4-nAChR; α2β4(1:10) cRNA ratio, putative HS
  EC50: 3.8 µM
Human α2β4-nAChR; α2β4(10:1) cRNA ratio, putative LS
  EC50: 11 µM
Human α2β4-nAChR; α2β4(1:1)
  Hill coefficient nH ± SE: 1.1 ± 0.1
  Imax Conc. (concentration where Imax is achieved): 100 µM
  Peak response Imax (Mean±SE): 2088 ± 96 nA
Human α2β4-nAChR; α2β4(1:1), listed as nicotine
  Peak response Imax (Mean±SE): 2088 nA
Human α2β4-nAChR; α2β4(1:10)
  Hill coefficient nH ± SE: 1.3 ± 0.08
  Imax Conc. (concentration where Imax is achieved): 100 µM
  Peak response Imax (Mean±SE): 1814 ± 155 nA
Human α2β4-nAChR; α2β4(10:1)
  Hill coefficient nH ± SE: 1.6 ± 0.09
  Imax Conc. (concentration where Imax is achieved): 100 µM
  Peak response Imax (Mean±SE): 1139 ± 93 nA
Human α2(T22I)β4-nAChR [6]; α2(T22I)β4(1:1) cRNA ratio
  EC50: 12 µM
Human α2(T22I)β4-nAChR [6]; α2(T22I)β4(1:10) cRNA ratio, putative HS
  EC50: 2.6 µM
Human α2(T22I)β4-nAChR [6]; α2(T22I)β4(10:1) cRNA ratio, putative LS
  EC50: 14 µM
Human α2(T22I)β4-nAChR [6]; α2(T22I)β4(1:1)
  Hill coefficient nH ± SE: 1.8 ± 0.07
  Imax Conc. (concentration where Imax is achieved): 100 µM
  Peak response Imax (Mean±SE): 1527 ± 245 nA
Human α2(T22I)β4-nAChR [6]; α2(T22I)β4(1:1), listed as nicotine
  Peak response Imax (Mean±SE): 1527 nA
Human α2(T22I)β4-nAChR [6]; α2(T22I)β4(1:10)
  Hill coefficient nH ± SE: 1.2 ± 0.04
  Imax Conc. (concentration where Imax is achieved): 100 µM
  Peak response Imax (Mean±SE): 3996 ± 168 nA
Human α2(T22I)β4-nAChR [6]; α2(T22I)β4(10:1)
  Hill coefficient nH ± SE: 2 ± 0.2
  Imax Conc. (concentration where Imax is achieved): 100 µM
  Peak response Imax (Mean±SE): 402 ± 70 nA
Human α2(T22I)β4-nAChR [6]; α2(T22I)β4 vs α2β4, 1:1 cRNA (mixture of isoforms)
  Peak current lower than wild-type α2β4: ~ 30%
hα2hβ2wt-nAChR
  Peak current: 24±5 nA
